Some results are limits rather than exact numbers.

The assay deals with T1, Recombinant human renin (Homo sapiens, UniProt P00797).
T1 construct: isolate the active form (residues 67-406); made in house; host or cells: FreeStyle 293-F cells (transient expression of pcDNA3.1(+)/hREN)
T1 sequence (P00797 67-406): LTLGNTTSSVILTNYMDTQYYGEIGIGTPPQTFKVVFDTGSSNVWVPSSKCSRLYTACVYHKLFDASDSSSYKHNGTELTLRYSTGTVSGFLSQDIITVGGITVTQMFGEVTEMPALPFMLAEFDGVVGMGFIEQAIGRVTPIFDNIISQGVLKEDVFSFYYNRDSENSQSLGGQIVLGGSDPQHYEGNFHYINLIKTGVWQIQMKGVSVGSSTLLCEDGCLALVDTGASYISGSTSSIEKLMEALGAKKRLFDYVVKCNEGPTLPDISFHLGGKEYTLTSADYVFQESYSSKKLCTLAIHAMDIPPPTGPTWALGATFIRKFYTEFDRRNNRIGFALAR
The assay can be described thus: In vitro enzymatic activity assay of renin inhibitors (fluorogenic peptide substrate). Type of assay: biochemical. The settings on record: for IC50: read-out: IC50 of Exemplified Compounds Against Renin. In a few lines:
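Enzyme: recombinant human renin, 3 nM final, 10 min compound pre-incubation at 37 °C; buffer 50 mM Hepes pH 7.4 with 0.1 mg/mL BSA or extra 2% BSA; 5% DMSO.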

In general, IC50 refers to the midpoint of a concentration-inhibition curve. As for `COCCCn1c([C@@H]2CCCN(C(=O)C[C@H](N)Cc3ccc(-c4ccnc(F)c4)cc3)C2)nc2ccccc21` [Compound 150, (R)-3-amino-4-(4-(2-fluoropyridin-4-yl)phenyl)-1-((R)-3-(1-(3-methoxypropyl)-1H-benzo[d]imidazol-2-yl)piperidin-1-yl)butan-1-one], the IC50 was below 100 nM.
Still for that read-out and setting: the figure for `COCCCn1c([C@@H]2CCCN(C(=O)C[C@H](N)c3cccc(Cl)c3)C2)nc2ccccc21` [Compound 83, (S)-3-amino-3-(3-chlorophenyl)-1((R)-3-(1-(3-methoxypropyl)-1H-benzo[d]imidazol-2-yl)piperidin-1-yl)propan-1-one] is above 1000 nM; for `COCCCn1c([C@@H]2CCCN(C(=O)C[C@H](N)Cc3ccc(-c4ccc(NC(=O)CO)cc4)cc3)C2)nc2ccccc21` [Compound 198, N-(4′-((R)-2-Amino-4-((R)-3-(1-(3-methoxypropyl)-1H-benzo[d]imidazol-2-yl)piperidin-1-yl)-4-oxobutyl)biphenyl-4-yl)-2-hydroxyacetamide] it is below 100 nM.
On the same count and under the same terms, the figure for `COCCCn1c([C@@H]2CCCN(C(=O)C[C@H](N)Cc3ccc(-c4ccc(OC(C)C)nc4)cc3)C2)nc2ccccc21` [Compound 142, (R)-3-amino-4-(4-(6-isopropoxypyridin-3-yl)phenyl)-1-((R)-3-(1-(3-methoxypropyl)-1H-benzo[d]imidazol-2-yl)piperidin-1-yl)butan-1-one] is below 100 nM; for `COCCCn1c([C@@H]2CCCN(C(=O)C[C@H](N)Cc3ccc(-c4ccc(C(=O)N5CCNC(=O)C5)cc4)cc3)C2)nc2ccccc21` [Compound 189, 4-(4′-((R)-2-amino-4-((R)-3-(1-(3-methoxypropyl)-1H-benzo[d]imidazol-2-yl)piperidin-1-yl)-4-oxobutyl)biphenylcarbonyl)piperazin-2-one] it is below 100 nM.
On the same count and under the same terms, the figure for `COCCCn1c([C@@H]2CCCN(C(=O)[C@@H]3CN(C(=O)Nc4ccccc4OC)C[C@H]3N)C2)nc2ccccc21` [Compound 400, (3S,4R)-3-amino-N-(2-methoxyphenyl)-4-((R)-3-(1-(3-methoxypropyl)-1H-benzo[d]imidazol-2-yl)piperidine-1-carbonyl)pyrrolidine-1-carboxamide] is above 1000 nM; for `COCCCn1c([C@@H]2CCCN(C(=O)C[C@H](N)Cc3ccc(-c4ccc5c(c4)CCO5)cc3)C2)nc2c(C)cccc21` [Compound 493, (R)-3-amino-4-(4-(2,3-dihydrobenzofuran-5-yl)phenyl)-l-((R)-3-(1-(3-methoxypropyl)-4-methyl-1H-benzo[d]imidazol-2-yl)piperidin-1-yl)butan-1-one] it is below 100 nM; for `COCCCn1c([C@@H]2CCCN(C(=O)C[C@H](N)Cc3ccc(-n4c(=O)[nH]c5ccccc54)cc3)C2)nc2ccccc21` [Compound 212] it is below 100 nM.
On to `Cc1nc2ccccc2n1[C@@H]1CCCN(C(=O)C[C@H](N)Cc2ccc3ccccc3c2)C1` [Compound 245, (R)-3-amino-1((R)-3-(2-methyl-1H-benzo[d]imidazol-1-yl)piperidin-1-yl)-4-(naphthalen-2-yl)butan-1-one], for which the IC50 is above 1000 nM. For the same molecule, the “Eutomer / distomer designation of the separated stereoisomers” value (isomers separated by preparative SFC, more or less active isomer as renin inhibitor) is given as “Distomer”.
`COCCCn1c([C@@H]2CCCN(C(=O)[C@@H]3CN(C(=O)c4ccc(Cl)c(Cl)c4)C[C@H]3N)C2)nc2ccccc21` [Compound 365, ((3R,4S)-4-amino-1-(3,4-dichlorobenzoyl)pyrrolidin-3-yl)((R)-3-(1-(3-methoxypropyl)-1H-benzo[d]imidazol-2-yl)piperidin-1-yl)methanone]: the IC50 is 100 to 1000 nM.
In the case of `COCCCn1c([C@@H]2CCCN(C(=O)C[C@H](N)Cc3ccc(-c4cn(C)c(=O)n(C)c4=O)cc3)C2)nc2ccccc21` [Compound 205, 5-(4-((R)-2-amino-4-((R)-3-(1-(3-methoxypropyl)-1H-benzo[d]imidazol-2-yl)piperidin-1-yl)-4-oxobutyl)phenyl)-1,3-dimethylpyrimidine-2,4(1H,3H)-dione], the IC50 was below 100 nM.
The same measure, in the same setting: the figure for `COCCCn1c([C@@H]2CCCN(C(=O)C[C@H](N)Cc3ccc(-c4ccc(C(=O)NCCOC)nc4)cc3)C2)nc2ccccc21` [Compound 195, 5-(4-((R)-2-amino-4-((R)-3-(1-(3-methoxypropyl)-1H-benzo[d]imidazol-2-yl)piperidin-yl)-4-oxobutyl)phenyl)-N-(2-methoxyethyl)picolinamide] is below 100 nM.
`CCCSc1ncccc1C(=O)N1C[C@@H](N)[C@H](C(=O)N2CCC[C@@H](c3nc4ccccc4n3CCCOC)C2)C1` [Compound 418]: the 50% inhibitory concentration (IC50) was above 1000 nM.
Still for that read-out and setting: the figure for `N[C@@H](CC(=O)N1CCCC(c2nc3ccccc3[nH]2)C1)c1cccc(Cl)c1` (stereo partly drawn) [Compound 30, (3S)-1-(3-(1H-benzo[d]imidazol-2-yl)piperidin-1-yl)-3-amino-3-(3-chlorophenyl)propan-1-one] is above 1000 nM.
For the molecule `COCCCn1c([C@@H]2CCCN(C(=O)C[C@H](N)Cc3ccc(-c4cncnc4)cc3)C2)nc2ccccc21` [Compound 149, (R)-3-Amino-1-((R)-3-(1-(3-methoxypropyl)-1H-benzo[d]imidazol-2-yl)piperidin-1-yl)-4-(4-(pyrimidin-5-yl)phenyl)butan-1-one], the IC50 was below 100 nM.
On to `COCCCn1c([C@@H]2CCCN(C(=O)[C@@H]3CN(S(=O)(=O)c4ccc(OC)c(OC)c4)C[C@H]3N)C2)nc2ccccc21` [Compound 372, ((3R,4S)-4-amino-1-(3,4-dimethoxyphenylsulfonyl)pyrrolidin-3-yl)((R)-3-(1-(3-methoxypropyl)-1H-benzo[d]imidazol-2-yl)piperidin-1-yl)methanone], for which the half-inhibitory concentration (IC50) is 100 to 1000 nM.
As for `COCCCn1c([C@@H]2CCCN(C(=O)C[C@H](N)Cc3ccc(-c4ccc5c(c4)OCC(=O)N5)cc3)C2)nc2c(C)cccc21` [Compound 497, 7-(4-((R)-2-amino-4-((R)-3-(1-(3-rnethoxypropyl)-4-methyl-1H-benzo[d]imidazol-2-yl)piperidin-1-yl)-4-oxobutyl)phenyl)-2H-benzo[b][1,4]oxazin-3(4H)-one], the concentration for half-maximal inhibition (IC50) is below 100 nM.
For the molecule `COCCCn1c([C@@H]2CCCN(C(=O)[C@H](O)[C@H](N)c3ccccc3)C2)nc2ccccc21` [Compound 92, (2R,3R)-3-amino-2-hydroxy-1-((R)-3-(1-(3-methoxypropyl)-1H-benzo[d]imidazol-2-yl)piperidin-1-yl)-3-phenylpropan-1-one], the 50% inhibitory concentration (IC50) was 100 to 1000 nM.
In the case of `COCCCn1c([C@@H]2CCCN(C(=O)C[C@@H](N)Cc3ccc(Cl)cc3)C2)nc2ccccc21` [Compound 69, (S)-3-amino-4-(4-chlorophenyl)-1-((R)-3-(1-(3-methoxypropyl)-1H-benzo[d]imidazol-2-yl)piperidin-1-yl)butan-1-one], the IC50 was above 1000 nM.
Same read-out and setting: the value for `COCCCn1c([C@@H]2CCCN(C(=O)C[C@H](N)CNC(=O)c3ccc(Cl)c(Cl)c3)C2)nc2ccccc21` [Compound 262, N-((S)-2-amino-4-((R)-3-(1-(3-methoxypropyl)-1H-benzo[d]imidazol-2-yl)piperidin-1-yl)-4-oxobutyl)-3,4-dichlorobenzamide] was 100 to 1000 nM.
Still for that read-out and setting: the figure for `COCCCn1c([C@@H]2CCCN(C(=O)C[C@H](N)Cc3ccc4ccccc4c3)C2)nc2cccc(C)c21` [Compound 107, (R)-3-Amino-1-((R)-3-(1-(3-methoxypropyl)-7-methyl-1H-benzo[d]imidazol-2-yl)piperidin-1-yl)-4-(naphthalen-2-yl)butan-1-one] is above 1000 nM.
Take `COCCCn1c([C@@H]2CCCN(C(=O)C[C@H](N)Cc3ccc(-c4ccc5c(c4)OCCN5C)cc3)C2)nc2c(F)cccc21` [Compound 453, (R)-3-amino-1-((R)-3-(4-fluoro-1-(3-methoxypropyl)-1H-benzo[d]imidazol-2-yl)piperidin-1-yl)-4-(4-(4-methyl-3,4-dihydro-2H-benzo[b][1,4]oxazin-7-yl)phenyl)butan-1-one]: the IC50 is below 100 nM.
For `COCCCn1c([C@@H]2CCCN(C(=O)C[C@H](N)Cc3ccc(-c4ccccc4)cc3)C2)nc2c(C)ccnc21` [Compound 505, (R)-3-amino-4-(biphenyl-4-yl)-1-((R)-3-(3-(3-methoxypropyl)-7-methyl-3H-imidazo[4,5-b]pyridin-2-yl)piperidin-1-yl)butan-1-one], the IC50 is below 100 nM.
Still for that read-out and setting: the value for `COCCCn1c([C@@H]2CCCN(C(=O)C[C@H](N)Cc3ccc(-c4ccc(C(=O)OC)cc4)cc3)C2)nc2ccccc21` [Compound 123, methyl 4′-((R)-2-amino-4-((R)-3-(1-(3-methoxypropyl)-1H-benzo[d]imidazol-2-yl)piperidin-1-yl)-4-oxobutyl)biphenyl-4-carboxylate] was below 100 nM; that for `COCCCn1c([C@@H]2CCCN(C(=O)C[C@H](N)Cc3ccc(-c4ccc(OC)nc4OC)cc3)C2)nc2ccccc21` [Compound 132, (R)-3-amino-4-(4-(2,6-dimethoxypyridin-3-yl)phenyl)-1-((R)-3-(1-(3-methoxypropyl)-1H-benzo[d]imidazol-2-yl)piperidin-1-yl)butan-1-one] was below 100 nM; that for `COCCCn1c([C@@H]2CCCN(C(=O)C[C@H](N)Cc3ccc(-c4ccc(NC(=O)OC)cc4)cc3)C2)nc2ccccc21` [Compound 176, methyl 4′-((R)-2-amino-4-((R)-3-(1-(3-methoxypropyl)-1H-benzo[d]imidazol-2-yl)piperidin-1-yl)-4-oxobutyl)biphenyl-4-ylcarbamate] was below 100 nM.
